The target of assay [1] is T1, full length human IRAK4 protein (Homo sapiens, UniProt Q9NWZ3).
T1 construct: Purified full length human IRAK4 protein; purchased Signal Chem I12-10G-125
T1 sequence (Q9NWZ3 1-460): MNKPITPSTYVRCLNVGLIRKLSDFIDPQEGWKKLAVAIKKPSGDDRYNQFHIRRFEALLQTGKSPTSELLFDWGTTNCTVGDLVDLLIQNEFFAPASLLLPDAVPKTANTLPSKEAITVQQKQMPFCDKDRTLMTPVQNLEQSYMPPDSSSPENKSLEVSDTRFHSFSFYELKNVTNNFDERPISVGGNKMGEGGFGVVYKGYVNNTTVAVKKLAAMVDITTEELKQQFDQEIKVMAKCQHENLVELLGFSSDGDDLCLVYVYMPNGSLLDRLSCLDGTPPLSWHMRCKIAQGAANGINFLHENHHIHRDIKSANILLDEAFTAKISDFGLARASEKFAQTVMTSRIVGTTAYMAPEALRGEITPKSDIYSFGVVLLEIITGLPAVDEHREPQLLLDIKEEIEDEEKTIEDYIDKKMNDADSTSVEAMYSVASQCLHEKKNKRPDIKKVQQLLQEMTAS
Briefly: IRAK4 Biochemical Assay (Promega ADP-Glo IRAK4 Kinase Enzyme System). Conditions: 3 nM enzyme, 250 μM ATP; for IC50: 2 μM MBP, 60 min at room temperature; for IRAK4 Biochemical Assay Max Inhibition (%): maximum inhibition. Here is the method: For the routine compound screening, an IRAK4 kinase assay was performed as follows using Promega ADP-Glo IRAK4 Kinase Enzyme System (Promega, Cat #2198-AD). Purified full length human IRAK4 protein (Signal Chem; Cat #I12-10G-125) was diluted to a concentration 6 nM in assay buffer (25 mM MOPS, pH 7.2, 12.5 mM β-glycerol-phosphate, 25 mM MgCl2, 5 mM EGTA, 2 mM EDTA, 0.0025% Brij-35, add 0.25 mM DTT to Kinase Assay Buffer prior to use) containing IRAK4 inhibitor at 2× the final concentration in 0.4% DMSO. The reaction was performed in PerkinElmer Proxiplate-384 plus white plate (Fisher Scientific, Cat #50-905-2761) and started by the addition of an equal volume of the assay buffer containing 4 μM native swine myelin basic protein (MBP) and 500 μM ATP to achieve a final concentration of 3 nM enzyme, 2 μM MBP, 250 μM ATP, 1× compound, and 0.2% DMSO. The kinase reaction was allowed to run for 60 min at room temperature (25-27° C.), then 5 μL of ADP-Glo was added to the reaction in each well followed by 40 minutes-incubation at RT. To detect converted […], 10 μL Detection Buffer was added into each well and Incubate at RT in dark for 30 minutes. Finally, luminescence was read using Tecan with 1000 ms of integration time. The luminescent signal positively correlates with ADP amount and kinase activity. Data was analyzed by GraphPad Prism and IC50 was calculated using function log(inhibitor) vs. response—Variable slope (four parameters). Percentage of inhibition was calculated as below:
(§1) % inhibition=(1−(Reading(Sample)−Reading(Negative Control))/(Reading(Positive Control)−Reading(Negative Control)))×100%
The 0% inhibition value comes from the Reading of Positive Control wells having 0 nM compound. The 100% inhibition value comes from the Reading of Negative Control wells having no IRAK4 kinase.
In general terms: ADP-Glo turns the ADP formed in a reaction into a luminescent signal.

For another assay, the target named is T2, IRAK4 (Homo sapiens, UniProt Q9NWZ3).
T2 construct: host or cells: human peripheral blood mononuclear cells (PBMCs)
T2 sequence (Q9NWZ3 1-460): T1 sequence (Q9NWZ3 1-460)
Briefly: IRAK4 Human PBMC TNFα Cell Based Assay (AlphaLISA). As to conditions: TNFα measured. As for the experimental part:
In this assay, serially diluted compounds were incubated with 1×10^4 human peripheral blood mononuclear cells (PBMCs) from STEMCELL (Cat #70025.1) per well of 384-well plate (Fisher Scientific; 50-905-2761) and cultured with TexMACS medium (Miltenyi, Cat #130-097-196), stimulated by R848 (0.5 μM) or IL-1β (10 ng/ml). Plates were covered with lids and incubated for 4 h (R848, Fisher Scientific, Cat #NC9801605) or 24 h (IL-1β, Fisher Scientific, Cat #ENRIL1BI) at 37° C. in a humidified tissue-culture incubator. After a brief centrifugation at 1000 rpm for 5 minutes, 5 μl of culture medium was used for the measurement of the TNFα amount using TNFα (human) AlphaLISA Detection Kit (PerkinElmer, Cat #AL208C) according to manufacturer's protocol. A biotinylated anti-TNFα antibody binds to the Streptavidin-coated Donor beads while another anti-TNFα antibody is conjugated to AlphaLISA Acceptor beads. In the presence of the TNFα, the beads come into close proximity. The excitation of the Donor beads causes the release of singlet oxygen molecules that triggers a cascade of energy transfer in the Acceptor beads, resulting in a sharp peak of light emission at 615 nm. AlphaLISA assay plates were read using PHERAstar. Percentage of inhibition was calculated as below:
as §1
The 0% inhibition value comes from the Reading of Positive Control wells having 0 nM compound. The 100% inhibition value comes from the Reading of Negative Control wells having no R848 or IL-1β.

The mark [2] stands for this setting: human PBMCs stimulated by IL-1β (10 ng/ml), 24 h, read-out: IRAK4 PBMC AlphaLISA IL-1β (IC50).
The mark [3] stands for this setting: human PBMCs stimulated by R848 (0.5 μM), 4 h, read-out: IRAK4 PBMC AlphaLISA R848 (IC50).

Where two headings read alike, the source gives them in different places.

For orientation: IC50 means the concentration that inhibits the measured activity by half. On to `CC[C@@H]1[C@H](F)C(=O)N[C@@H]1COc1ncc(C#Cc2cnn(C)c2)c2cc(C(N)=O)c(OC)cc12` [Example 17, 1-(((2S,3S,4S)-3-ethyl-4-fluoro-5-oxopyrrolidin-2-yl)methoxy)-7-methoxy-4-((1-methyl-1H-pyrazol-4-yl)ethynyl)isoquinoline-6-carboxamide], for which the figures for the IC50 (in assay [1]; at IRAK4 (setting [2]); on IRAK4 (setting [3])) were 32 nM, 1.5 nM and 2.4 nM, respectively. Also, the “IRAK4 Biochemical Assay Max Inhibition (%)” value in assay [1] was 100.0%.
For `CC[C@@H]1[C@H](F)C(=O)N[C@@H]1COc1ncc(C#C[C@H](C)O)c2cc(C(N)=O)c(OC)cc12` [Example 18, 1-(((2S,3S,4S)-3-ethyl-4-fluoro-5-oxopyrrolidin-2-yl)methoxy)-4-((S)-3-hydroxybut-1-yn-1-yl)-7-methoxyisoquinoline-6-carboxamide] the same measures were 27.5 nM, 1.7 nM, 2.5 nM and 95.0%.
For `CC[C@@H]1[C@H](F)C(=O)N[C@@H]1COc1ncc(C#C[C@@H](C)O)c2cc(C(N)=O)c(OC)cc12` [Example 19, 1-(((2S,3S,4S)-3-ethyl-4-fluoro-5-oxopyrrolidin-2-yl)methoxy)-4-((R)-3-hydroxybut-1-yn-1-yl)-7-methoxyisoquinoline-6-carboxamide] the same measures were 13 nM, 1.3 nM, 3 nM and 100.0%.
For `CC[C@@H]1[C@H](F)C(=O)N[C@@H]1COc1ncc(C#Cc2cn[nH]c2)c2cc(C(N)=O)c(OC)cc12` [Example 20, 4-((1H-pyrazol-4-yl)ethynyl)-1-(((2S,3S,4S)-3-ethyl-4-fluoro-5-oxopyrrolidin-2-yl)methoxy)-7-methoxyisoquinoline-6-carboxamide] the same measures were 22 nM, 1.7 nM, 3 nM and 100.0%.
For `CC[C@@H]1[C@H](F)C(=O)N[C@@H]1COc1ncc(C#Cc2nnn(C)n2)c2cc(C(N)=O)c(OC)cc12` [Example 21, 1-(((2S,3S,4S)-3-ethyl-4-fluoro-5-oxopyrrolidin-2-yl)methoxy)-7-methoxy-4-((2-methyl-2H-tetrazol-5-yl)ethynyl)isoquinoline-6-carboxamide], the IC50 in assay [1] is 22 nM; on IRAK4 (setting [2]), 4.6 nM; at IRAK4 (setting [3]), 3.1 nM. Also, the “IRAK4 Biochemical Assay Max Inhibition (%)” value in assay [1] was 98.0%.
For `CC[C@@H]1[C@H](F)C(=O)N[C@@H]1COc1ncc(C#Cc2ccncc2)c2cc(C(N)=O)c(OC)cc12` [Example 22, 1-(((2S,3S,4S)-3-ethyl-4-fluoro-5-oxopyrrolidin-2-yl)methoxy)-7-methoxy-4-(pyridin-4-ylethynyl)isoquinoline-6-carboxamide] the same measures were 23 nM, 0.8 nM, 3.4 nM and 100.0%.
In the case of `CC[C@@H]1[C@H](F)C(=O)N[C@@H]1COc1ncc(C#CCOC)c2cc(C(N)=O)c(OC(C)C)cc12` [Example 25, 1-(((2S,3S,4S)-3-ethyl-4-fluoro-5-oxopyrrolidin-2-yl)methoxy)-7-isopropoxy-4-(3-methoxyprop-1-yn-1-yl)isoquinoline-6-carboxamide], the half-inhibitory concentration (IC50) in assay [1] is 27 nM; on IRAK4 (setting [2]), 3.9 nM; on IRAK4 (setting [3]), 5 nM. Besides, in assay [1], the “IRAK4 Biochemical Assay Max Inhibition (%)” value is on record as 103.0%.
Take `CC[C@@H]1[C@H](F)C(=O)N[C@@H]1COc1ncc(C#Cc2ccccc2)c2cc(C(N)=O)c(OC)cc12` [Example 27, 1-(((2S,3S,4S)-3-ethyl-4-fluoro-5-oxopyrrolidin-2-yl)methoxy)-7-methoxy-4-(phenylethynyl)isoquinoline-6-carboxamide]: the values for the IC50 (in assay [1]; at IRAK4 (setting [2]); on IRAK4 (setting [3])) were 24 nM, 1.8 nM and 5.3 nM, respectively. Besides, the “IRAK4 Biochemical Assay Max Inhibition (%)” value in assay [1] is listed as 100.0%.
Turning to `CC[C@@H]1[C@H](F)C(=O)N[C@@H]1COc1ncc(C#CC(C)(C)OC)c2cc(C(N)=O)c(OC)cc12` [Example 28, 1-(((2S,3S,4S)-3-ethyl-4-fluoro-5-oxopyrrolidin-2-yl)methoxy)-7-methoxy-4-(3-methoxy-3-methylbut-1-yn-1-yl)isoquinoline-6-carboxamide], the IC50 in assay [1] is 37 nM; on IRAK4 (setting [2]), 9.2 nM; on IRAK4 (setting [3]), 5.5 nM. In assay [1], the “IRAK4 Biochemical Assay Max Inhibition (%)” value is on record as 100.0%.
Turning to `CC[C@@H]1[C@H](F)C(=O)N[C@@H]1COc1ncc(C#CC(C)(C)O)c2cc(C(N)=O)c(OC(C)C)cc12` [Example 29, 1-(((2S,3S,4S)-3-ethyl-4-fluoro-5-oxopyrrolidin-2-yl)methoxy)-4-(3-hydroxyl-3-methylbut-1-yn-1-yl)-7-isopropoxyisoquinoline-6-carboxamide], the IC50 in assay [1] was determined as 26 nM; at IRAK4 (setting [2]) it was 3.5 nM; at IRAK4 (setting [3]), 6.7 nM. In addition, in assay [1], the “IRAK4 Biochemical Assay Max Inhibition (%)” value is on record as 100.0%.
For `CC[C@@H]1[C@H](F)C(=O)N[C@@H]1COc1ccc(C#CC(C)(C)O)c2cc(C(N)=O)c(OC)cc12` [Example 31, 5-(((2S,3S,4S)-3-ethyl-4-fluoro-5-oxopyrrolidin-2-yl)methoxy)-8-(3-hydroxyl-3-methylbut-1-yn-1-yl)-3-methoxy-2-naphthamide] the same measures were 32 nM, 5.6 nM, 8.3 nM and 95.0%.
For `CC[C@@H]1[C@H](F)C(=O)N[C@@H]1COc1ncc(C#CC(C)(C)C)c2cc(C(N)=O)c(OC)cc12` [Example 32, 4-(3,3-dimethylbut-1-yn-1-yl)-1-(((2S,3S,4S)-3-ethyl-4-fluoro-5-oxopyrrolidin-2-yl)methoxy)-7-methoxyisoquinoline-6-carboxamide] the same measures were 45 nM, 17 nM, 11 nM and 99.0%.
As to `CC[C@@H]1[C@H](F)C(=O)N[C@@H]1COc1ccc(C#CC(C)(C)N(C)C)c2cc(C(N)=O)c(OC)cc12` [Example 33, 8-(3-(dimethylamino)-3-methylbut-1-yn-1-yl)-5-(((2S,3S,4S)-3-ethyl-4-fluoro-5-oxopyrrolidin-2-yl)methoxy)-3-methoxy-2-naphthamide], the concentration for half-maximal inhibition (IC50) in assay [1] was 13 nM; on IRAK4 (setting [2]), 41 nM; on IRAK4 (setting [3]), 25 nM. Moreover, the “IRAK4 Biochemical Assay Max Inhibition (%)” value in assay [1] is listed as 99.0%.

The values above are taken from US20220177446A1, “ALKYNE COMPOUNDS AS IRAK INHIBITORS, PREPARATION METHODS AND MEDICINAL USES THEREOF” (Eternity Bioscience Inc., priority 2020, published 2022).
